Reference: US6274330A, “L-AP4 sensitive glutamate receptors” (ZymoGenetics, Inc., priority 1993, dated 2001)
Entries after “also recorded” stand apart in the source; their conditions may differ.

Assays:
[1] = target: T1, mGluR7 (Rattus norvegicus, UniProt P35400); experiment: Inhibition of forskolin-stimulated cAMP production in BHK cells transfected with mGluR7; assay type: cell-based; conditions: for inhibition of forskolin-stimulated cAMP production: forskolin 10 μM, 10 minutes, IBMX 1 mM; for antagonism of the inhibition of cAMP produced by L-AP4: antagonist 1 mM; for decrease in cAMP: agonist 100 μM; for agonist potency at mGluR7 compared with that previously observed for mGluR4 or mGluR6: cAMP inhibition, no full concentration-response analysis
T1 construct: RNA-injected Xenopus oocytes
Method: FIG. 2 depicts the inhibition of forskolin-stimulated cAMP production by mGluR7 in baby hamster kidney cells. BHK cells transfected with mGluR7 were preincubated for 20 minutes in IBMX (1 mM), then incubated for 10 minutes with forskolin (10 μM) in the presence or absence of agonists or antagonists.
BHK cells were transfected with mGluR7 subcloned into pZEM229R. Plasmid pZEM229R is a pUC18-based expression vector containing an EcoRI cloning site between a mouse metallothionein-I promoter and an SV40 transcription terminator. The vector also contains an expression unit of the SV40 early promoter, mouse dihydrofolate reductase gene, and SV40 terminator. The two expression units are in opposite orientations with their respective promoters adjacent to each other. E. coli HB101 transformed with pZEM229R was deposited with American Type Culture Collection, 12301 Parklawn Drive, Rockville, MD on Sep. 28, 1993.
(§1) The cells were grown in 10% fetal calf serum and Dulbecco's minimal essential media (DMEM), and transfected clones were selected by methotrexate resistance. Resistant clones were assayed for the presence of mGluR7 RNA and protein. Confluent cells were assayed for cAMP production (Amersham) in the presence of IBMX (1 mM) isobutylmethylxanthine; cAMP levels were measured after 10 minute treatment with forskolin (10 μM) in the presence or absence of mGluR agonists or antagonists. Assays were performed in triplicate three times and the average value from these experiments expressed as the mean cAMP levels plus and minus the standard deviation. The basal cAMP production was subtracted from the stimulated levels and the inhibition was plotted as a percent of the forskolin-stimulated control.

[2] = target: T1, mGluR7; experiment: Calcium-activated chloride current in Xenopus oocytes injected with mGluR7 mRNA (two-electrode voltage clamp); assay type: cell-based
Method: (§2) For oocyte expression studies, xenopus laevis (Xenopus I, Ann Arbor) were anesthetized with tricaine and oocytes harvested using sterile technique. RNA transcripts from mGluR1 and mGluR7 were injected into Stage V-VI oocytes (1-100 ng RNA/oocyte) and the oocytes were assayed for production of a calcium-activated chloride current using a two-electrode voltage clamp. Harvesting of oocytes, solutions and recording methods were as described by Lester and colleagues (Dascal et al., Brain Res. 387: 201-209 [1986], which is incorporated herein by reference).

[3] = system: mGluR1; experiment: Calcium-activated chloride current in Xenopus oocytes injected with mGluR1 mRNA (two-electrode voltage clamp); assay type: cell-based; conditions: sister oocytes injected with mGluR1 mRNA
Method: as §2

[4] = system: mGluR4; experiment: Forskolin-stimulated cAMP assay in a BHK clone expressing mGluR4; assay type: cell-based; conditions: L-AP4 1 mM
[5] = system: wild-type BHK cells; experiment: cAMP levels in wild-type BHK cells; assay type: cell-based, hamster
Method: as §1

[6] = agonist 1 mM, BHK cells expressing mGluR7

T1 sequence (P35400 35-915): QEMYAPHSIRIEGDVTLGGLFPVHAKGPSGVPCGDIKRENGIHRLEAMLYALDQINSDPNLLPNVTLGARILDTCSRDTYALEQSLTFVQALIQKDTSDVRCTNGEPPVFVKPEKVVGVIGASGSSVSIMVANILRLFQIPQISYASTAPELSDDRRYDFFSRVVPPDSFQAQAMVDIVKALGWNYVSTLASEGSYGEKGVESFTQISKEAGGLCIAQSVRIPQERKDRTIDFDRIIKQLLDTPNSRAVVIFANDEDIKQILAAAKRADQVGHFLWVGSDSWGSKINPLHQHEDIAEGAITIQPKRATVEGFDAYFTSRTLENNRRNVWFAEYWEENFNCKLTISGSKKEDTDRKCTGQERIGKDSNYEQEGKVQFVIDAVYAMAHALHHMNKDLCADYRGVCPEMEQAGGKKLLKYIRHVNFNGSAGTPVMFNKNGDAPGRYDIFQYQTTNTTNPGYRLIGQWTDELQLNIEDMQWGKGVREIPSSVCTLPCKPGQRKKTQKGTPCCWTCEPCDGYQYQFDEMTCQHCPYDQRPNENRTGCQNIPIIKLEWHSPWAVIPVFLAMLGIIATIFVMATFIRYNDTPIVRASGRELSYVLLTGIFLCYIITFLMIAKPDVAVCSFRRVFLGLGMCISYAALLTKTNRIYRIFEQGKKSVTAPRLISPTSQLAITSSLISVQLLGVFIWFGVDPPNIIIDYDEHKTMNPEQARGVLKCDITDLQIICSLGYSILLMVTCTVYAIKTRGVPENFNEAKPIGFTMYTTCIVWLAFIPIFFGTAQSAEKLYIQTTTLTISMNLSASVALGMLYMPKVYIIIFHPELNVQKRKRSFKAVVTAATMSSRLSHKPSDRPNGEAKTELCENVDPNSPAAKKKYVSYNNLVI

SMILES	antagonism of the inhibition of cAMP produced by L-AP4 ([1]; BHK cells expressing mGluR7)	inhibition of forskolin-stimulated cAMP production [1, 6]	decrease in cAMP ([1]; BHK cells expressing mGluR7)	agonist potency at mGluR7 compared with that previously observed for mGluR4 or mGluR6 [1]	other results
N[C@@H](Cn1oc(=O)[nH]c1=O)C(=O)O [quisqualate]	–	–	–	–	inhibition of forskolin-stimulated cAMP production ([1]; agonist 0.5 mM, BHK cells expressing mGluR7): less efficient; also recorded: much less effective
CC(N)(C(=O)O)c1ccc(C(=O)O)cc1 (racemic) [MCPG, RS-α-methyl-4-carboxyphenylglycine]	did not antagonize	–	–	–	–
N[C@@]1(C(=O)O)CC[C@@H](C(=O)O)C1 [ACPD, (1S,3R)-1-aminocyclopentane-1,3-dicarboxylic acid]	–	less efficient; also recorded: much less effective	–	–	–
N[C@@H](CCC(=O)O)C(=O)O [glutamate]	–	less efficient; also recorded: inhibited	small decreases in cAMP which were not statistically significant	much less potent agonists	glutamate response (calcium-activated chloride current) [2]: no glutamate responses; glutamate response (calcium-activated chloride current) [3]: large calcium-activated chloride currents
N[C@@H](CCP(=O)(O)O)C(=O)O [L-AP4, L-2-amino-4-phosphonobutryic acid]	–	largest inhibition; also recorded: inhibited	small decreases in cAMP which were not statistically significant	much less potent agonists	inhibition (cAMP) in BHK clone expressing mGluR4 [4]: 45%; effect on basal cAMP levels [5]: no significant effect; effect on forskolin-stimulated cAMP levels [5]: no significant effect
N[C@@H](CP(=O)(O)O)C(=O)O [L-AP3, 2-amino-3-phosphonopropionic acid]	did not antagonize	–	–	–	antagonism of mGluR7-mediated cAMP inhibition ([1]; antagonist 3 mM, BHK cells expressing mGluR7): did not antagonize
